Test results reported in US7320890B2, “Soluble steroidal peptides for nucleic acid delivery” (University of Utah Research Foundation, priority 2001, dated 2008).
Where a SMILES comes first, the peptide text is derived from it. Where no end group is shown, it is not given here. The star is where a group is joined. Lithocholoyl = C[C@H](CCC(=O)*)[C@H]1CC[C@H]2[C@@H]3CC[C@@H]4C[C@H](O)CC[C@]4(C)[C@H]3CC[C@]12C

Key:
[1] = tested on: CT-26 colon carcinoma cell lines; test: In vitro transfection, luciferase activity; type: cell-based; conditions: CT-26 cells, controls without carrier conjugate or without plasmid
Protocol: SSP/pLuc and SSP/p2CMVmIL-12 complexes formulated at various N/P ratios in 5% (w/v) glucose were evaluated for their transfection efficiency in CT-26 colon carcinoma cell lines. In the case of luciferase gene controls, cells were lysed after transfection and the relative light units (RLU) and total protein concentration were determined. […] The transfection efficiency increased with the increase in N/P ratios but diminished slightly with ratios 50/1 and above which could possibly be due to cytotoxicity towards CT-26 cells. On visual inspection under light microscope some granulation of cells was found, and cytotoxicity tests indicate that above N/P ratios 50/1 the cell viability is reduced by about 80%, which would account for lower gene expression.
In case of pLuc, CT-26 cells were seeded in 12-well tissue culture plates at 1×10^5 cells per/well in 10% FBS containing RPMI 1640 media. Cells achieved 70% confluency within 24 hours, after which they were transfected with SSP/pDNA complexes prepared at different N/P ratios ranging from 5/1 to 50/1 as described above. […] Luciferase activity was measured in terms of relative light units (RLU) using 96 well plate Luminometer (Dynex Technologies Inc, Chantilly, Va.). The luciferase activity was monitored and integrated over a period of 30 secs. […]

CT-26 cells = test: Membrane permeabilization study (ethidium bromide staining, flow cytometry); type: cell-based; conditions: for levels of staining: pH 7.4; for cells stained (ethidium bromide fluorescence): 10 μM SSP
Protocol: Membrane permeabilization studies were performed to find out whether SSP was able to form pores through plasma membranes and whether this phenomenon had any pH dependence or not. SSP prepared according to Example 1 was used at micromolar concentrations on cells preincubated with ethidium bromide, which intercalates between the strands of dsDNA and causes it to fluoresce. Ethidium bromide on its own is a poor membrane permeant, however, if the membranes are permeabilized, it would rapidly cross the cytoplasm, accumulate in the nucleus, and bind to the cellular DNA. Its fluorescent property would allow us to thus find the extent to which permeabilization via SSP occurred.
The membrane permeabilization activity of SSP was determined using flow cytometry. CT-26 cells were grown overnight and at 70-80% confluency were trypsinized and centrifuged. Cells were washed several times in 1×PBS (pH 7.4) and eventually resuspended in it to make cell suspensions of 1×10^6 cells/ml. One microliter of ethidium bromide (10 mg/ml) was mixed in 0.5 ml of cell suspension aliquots and stored at 4° C. 15 minutes before use. The pH of cell suspensions was adjusted to values 5,6,7, or 8 using either 1N NaOH or 1N HCl solutions 5 minutes before starting the experiment. SSP was finally used to permeabilize the membranes at the same final concentration for pH studies or at different concentrations at pH 7.4. Temperature effects at 4° C. and 37° C. were also studied to find any temperature dependent differences in permeabilization. After 5 and 15 minutes incubation, the cell fluorescence intensity was measured using FACScan Analyzer (Becton Dickinson, Sunnyvale, Calif.), which has a single 15-mW argon (488 nm) laser light source. A 585 nm long pass filter was used to collect the emitted red fluorescence. The forward scatter, side scatter, and ethidium bromide fluorescence were simultaneously recorded with 10,000 cells at 300 events per second. The results were later analyzed using cell quest software provided by the same manufacturer. Histogram statistics were used to quantitatively determine the extent of permeabilization.

[2] = mouse, CT-26 colon adeno-carcinoma cells
Protocol: (§1) Cytotoxicity of SSP/p2CMVmIL-12 complexes prepared at different N/P ratios were assessed using an MTT assay. CT-26 colon adeno-carcinoma cells were grown and maintained in RPMI 1640 medium (GIBCO-BRL, Gaithersburg, Md.), which was supplemented with 10% fetal bovine serum (FBS), 100 U/ml penicillin, 100 U/ml streptomycin and 50 μg/ml gentamycin (all from Gibco-BRL, Gaithersburg, Md.) at 37° C. and humidified 5% CO2.
(§2) Briefly, CT-26 cell lines were seeded in 96 well plates at 4000 cells/well and incubated for 24 hours. After checking the cell confluency, which was over 80%, SSP/p2CMVmIL-12 complexes prepared at N/P ratios ranging from 5/1 to 100/1 were added to the cells at a dose of 0.15 μg pmIL-12/well. Following 48 hrs of incubation, 25 μl of 5 mg/ml 3-[4,5-dimethylthiazol-2-yl]-2,5-diphenyltetrazolium bromide (MTT, Sigma Chemical Co., St. Louis, Mo.) stock solution in phosphate buffered saline (PBS, Gibco-BRL) was poured into each well reaching a final concentration of 0.5 mg/ml MTT. The plate was then incubated at 37° C. in 5% CO2 for 4 hrs. The medium was removed and 150 μl of dimethyl sulfoxide (DMSO, Aldrich) was added to dissolve the formazan crystals. The plate was read spectrophotometrically at 570 nm in an ELISA plate reader. The relative cell viability was calculated as [Abs]sample/[Abs]control×100. […]

plasmid DNA = test: Condensation of plasmid DNA (gel electrophoresis); type: physicochemical; conditions: 4.5% (w/v) glucose, phosphate buffer pH 8.0
Protocol: Various formulations of SSP/p2CMVmIL-12 were prepared as follows: 100 μL aliquots of SSP at various concentrations and pDNA (0.2 mg/ml) were prepared in 4.5% (w/v) glucose to bring the osmolality to 285-295 mOsm, and 1M phosphate buffer was used to bring the pH to 8.0 of both aliquots. SSP/pDNA complexes at various N/P ratios ranging from 0.5/1 (N/P) to 50/1 (N/P) were prepared by rapidly mixing contents of SSP aliquot in pDNA aliquots using a pipettor. N/P ratio was calculated by taking into account 3 nitrogens for each arginine in SSP, thereby resulting in 18 nitrogens for each SSP molecule. The SSP/pDNA complexes were incubated for 15 minutes at room temperature before electrophoresis.

[3] = tested on: CT-26 colon adeno-carcinoma cells; test: Cytotoxicity MTT assay; conditions: SSP alone, amounts equivalent to those used in N/P ratios 20/1
Protocol: as §1, §2

Row | Molecule | transfection / gene expression (in words) [1] | levels of staining (CT-26 cells; 5 μM of SSP or above) | levels of staining (CT-26 cells; 10 μM SSP and above) | cells stained (ethidium bromide fluorescence) (CT-26 cells; pH 5 and 6, within 5 minutes) | cells stained (ethidium bromide fluorescence) (CT-26 cells; pH 5 and 6, within 5 minutes, listed as soluble steroidal peptide) | cells stained (ethidium bromide fluorescence) (CT-26 cells; pHs above the pKa of the imidazole ring of histidine (pKa=6.1), pH 7 and 8) | viability at 48 h [2] | N/P ratio at which pDNA is condensed completely (plasmid DNA) | cytotoxicity (in words) [3]
1 | HHYRRRHKSRRRLHH [Peptide sequence, reference compound] | not effective | – | – | – | – | – | – | – | –
2 | CC(C)C[C@H](NC(=O)[C@H](CCCNC(=N)N)NC(=O)[C@H](CCCNC(=N)N)NC(=O)[C@H](CCCNC(=N)N)NC(=O)[C@H](CO)NC(=O)[C@H](CCCCNC(=O)CC[C@@H](C)[C@H]1CC[C@H]2[C@@H]3CC[C@@H]4C[C@H](O)CC[C@]4(C)[C@H]3CC[C@]12C)NC(=O)[C@H](Cc1c[nH]cn1)NC(=O)[C@H](CCCNC(=N)N)NC(=O)[C@H](CCCNC(=N)N)NC(=O)[C@H](CCCNC(=N)N)NC(=O)[C@H](Cc1ccc(O)cc1)NC(=O)[C@H](Cc1c[nH]cn1)NC(=O)[C@@H](N)Cc1c[nH]cn1)C(=O)N[C@@H](Cc1c[nH]cn1)C(=O)N[C@@H](Cc1c[nH]cn1)C(N)=O [SSP] (H-HHYRRRHK(Lithocholoyl)SRRRLHH-NH2; N-terminus and C-terminus assumed) | did not give any gene expression | > 85% | ~100% | over 97% | less than 25% | < 25% | ~75% | 3/1 | non-toxic
